{
  "source": "patent US20130131008A1",
  "about": "“LIPOPHILIC MONOPHOSPHORYLATED DERIVATIVES AND NANOPARTICLES” (BOARD OF REGENTS, THE UNIVERSITY OF TEXAS SYSTEM, priority 2011, published 2013)",
  "key": {"[1]": {"test_system": "CCRF-CEM cells", "assay": "In vitro cytotoxicity assay (MTT), 72 h", "type": "cell-based, human", "conditions": "Homo sapiens, CCRF-CEM, 72 h incubation", "source_text": "(§1) Human leukemia cell line CCRF-CEM (CCL-119), human pancreatic cancer cell lines PANC-1 (CRL-1469), MIA PaCa-2 (CRL-1420), and BxPC-3 (CRL-1687), human breast adenocarcinoma cell line MCF-7 (HTB-22), and mouse lung cancer cell line TC-1 (CRL-2785) were from the American Type Culture Collection (Rockville, Md.). CCRF-CEM-AraC-8C cells (hENT1 deficient) and CCRF-CEM/dCK^−/− cells (dCK deficient) were kindly provided by Dr. Buddy Ullmann (Oregon Health & Science University, Portland, Oreg.) and Dr. Margaret Black (Washington State University, Pullman, Wash.), respectively. L1210 wt and L1210 10K were kindly supplied by Dr. Lars Petter Jordheim (Université Claude Bernard Lyon I, Lyon, France). TC-1-GR cells were previously developed in our lab. CCRF-CEM, CCRF-CEM-AraC-8C, CCRF-CEM/dCK^−/−, L1210 wt, L1210 10K, TC-1, and TC-1-GR cells were cultured in RPMI 1640 medium. MCF-7 and PANC-1 cells were cultured in Dulbecco's modified Eagle medium (DMEM), MIA PaCa-2 cells were cultured in DMEM medium with 2.5% horse serum. All media were supplemented with 10% fetal bovine serum (FBS), 100 U/mL of penicillin, and 100 μg/mL of streptomycin (all from Invitrogen, Carlsbad, Calif.).\n(§2) Cells (5,000/well) were seeded in 96-well plates. After overnight incubation, they were treated with various concentrations of gemcitabine HCl, gemcitabine derivatives, or gemcitabine derivatives in nanoparticles at 37° C., 5% CO2. TC-1 and TC-1-GR cells were incubated for 48 h. CCRF-CEM, CCRF-CEM-AraC-8C, CCRF-CEM/dCK^−/−, L1210 wt, L1210 10K, and MCF-7 cells were incubated for 72 h, and MIA PaCa-2 and PANC-1 for 96 h. Gemcitabine HCl was dissolved in phosphate-buffered saline (PBS), and gemcitabine derivatives were dissolved in dimethyl sulfoxide (DMSO). […] The number of viable cells after the incubation was determined using an MTT assay. Briefly, 3-(4,5-dimethylthiazol-2-yl)-2,5-diphenyltetrazolium bromide (20 μl, 5 mg/mL) was added in each well and incubated for 3 h. Formazan crystals were solubilized with acidified isopropanol (150 μl) (for CCRF-CEM, CCRF-CEM-AraC-8C, CCRF-CEM/dCK^−/−, L1210 wt, and L1210 10K cells) or DMSO (150 μl) (for TC-1, TC-1-GR, MCF-7, PANC-1, and MIA PaCa-2). Absorbance was measured using a BioTek Synergy™ HT Multi-Mode Microplate Reader (BioTek Instruments, Winooski, Vt.) at 570 nm and 630 nm. The fraction of affected (dead) cells (Fa) and the fraction of unaffected (live) cells (Fu) at every dose were calculated, and the Log(Fa/Fu) values were plotted against the Log(concentration of gemcitabine). IC50 was the dose at Log(Fa/Fu)=0, See e.g., Chou, T. C. & Talalay, P., 1984, Adv. Enzyme Regul. 22:27-55. The experiment was repeated at least three times."}, "[2]": {"test_system": "CCRF-CEM/dCK−/− cells", "assay": "In vitro cytotoxicity assay (MTT), 72 h, dCK deficient cells", "type": "cell-based, human", "source_text": "as §1\nCells (5,000/well) were seeded in 96-well plates. After overnight incubation, they were treated with various concentrations of gemcitabine HCl, gemcitabine derivatives, or gemcitabine derivatives in nanoparticles at 37° C., 5% CO2. TC-1 and TC-1-GR cells were incubated for 48 h. CCRF-CEM, CCRF-CEM-AraC-8C, CCRF-CEM/dCK^−/−, L1210 wt, L1210 10K, and MCF-7 cells were incubated for 72 h, and MIA PaCa-2 and PANC-1 for 96 h. […] The number of viable cells after the incubation was determined using an MTT assay. […] Absorbance was measured using a BioTek Synergy™ HT Multi-Mode Microplate Reader (BioTek Instruments, Winooski, Vt.) at 570 nm and 630 nm. The fraction of affected (dead) cells (Fa) and the fraction of unaffected (live) cells (Fu) at every dose were calculated, and the Log(Fa/Fu) values were plotted against the Log(concentration of gemcitabine). […]"}, "[3]": {"test_system": "L1210 wt cells", "assay": "In vitro cytotoxicity assay (MTT), 72 h", "type": "cell-based, murine", "conditions": "Mus musculus, 72 h incubation", "source_text": "as §1, with “MCF-7 and PANC-1 cells were cultured in Dulbecco's modified Eagle medium (DMEM), MIA PaCa-2 cells were cultured in DMEM medium with 2.5% horse serum. All media were supplemented with 10% fetal bovine serum (FBS), 100 U/mL of penicillin, and 100 μg/mL of streptomycin (all from Invitrogen, Carlsbad, Calif.).” left out\nCells (5,000/well) were seeded in 96-well plates. […] The number of viable cells after the incubation was determined using an MTT assay. […] Absorbance was measured using a BioTek Synergy™ HT Multi-Mode Microplate Reader (BioTek Instruments, Winooski, Vt.) at 570 nm and 630 nm. The fraction of affected (dead) cells (Fa) and the fraction of unaffected (live) cells (Fu) at every dose were calculated, and the Log(Fa/Fu) values were plotted against the Log(concentration of gemcitabine). […]"}, "[4]": {"test_system": "TC-1 cells", "assay": "In vitro cytotoxicity assay (MTT), 48 h", "type": "cell-based", "conditions": "Mus musculus, TC-1, 48 h incubation", "source_text": "as §1, §2"}, "[5]": {"test_system": "MIA PaCa-2 cells", "assay": "In vitro cytotoxicity assay (MTT), 96 h", "type": "cell-based, human", "conditions": "Homo sapiens, MIA PaCa-2, 96 h incubation", "source_text": "as §1, §2"}, "[6]": {"test_system": "CCRF-CEM-AraC-8C cells", "assay": "In vitro cytotoxicity assay (MTT), 72 h, hENT1 deficient cells", "type": "cell-based, human", "conditions": "for Ratio of IC50 in CCRF-CEM-AraC-8C to that in CCRF-CEM: HCl", "source_text": "as §1, §2"}, "[7]": {"test_system": "PANC-1 cells", "assay": "Trypan blue exclusion assay of cell viability", "type": "cell-based, human", "conditions": "400 μM", "protocol": "Cell viability was determined using a trypan blue exclusion assay. Data shown are mean±S.D. (S.D.: standard deviation) (n=3). Experiment was repeated twice."}, "[8]": {"test_system": "TC-1 mouse lung cancer cells (s.c. tumors)", "assay": "Anti-tumor activity of PLGA-GemC18-NPs in TC-1 tumor-bearing mice (Example 19)", "type": "in vivo", "conditions": "C57BL/6 mice, i.v. twice a week from day 11, 150 μg GemC18 per mouse per dose or molar equivalent gemcitabine HCl", "protocol": "The anti-tumor activity of the PLGA-GemC18-NPs was evaluated in female C57BL/6 mice (18-20 g, 6-8 weeks, n=4-5) that were subcutaneously (s.c.) injected with TC-1 mouse lung cancer cells (ATCC # CRL-2785, 5×10^5 cells/mouse) in the right flank. Mouse hair was carefully trimmed at the injection site 1 day prior to the injection. PLGA-GemC18-NPs, GemC18-free NP (PLGA-NPs), gemcitabine hydrochloride (HCl) (U.S. Pharmacopeia; Rockville, Md.) and sterile mannitol (5%, w/v) were intravenously (i.v) injected starting on day 11, twice a week until the end of the study. The dose of the GemC18 was 150 μg per mouse per dose, or the molar equivalent dose for gemcitabine HCl. Tumor size was determined 2-3 times a week and calculated using the formulas: diameter (mm)=[length+width]/2."}, "[9]": {"test_system": "B16-F10 melanoma tumor", "assay": "Antitumor activity of GemC18/PEG-C18 micelles in mice with B16-F10 tumors (Example 20)", "type": "in vivo, mouse", "conditions": "C57BL/6 mice, tail vein injection, 0.283 mg GemHCl or molar equivalent GemC18; 2 doses (micelles 3 doses), 3 days apart", "protocol": "The in vivo antitumor activity of GemC18/PEG-C18 micelles was evaluated in C57BL/6 mice with subcutaneously inoculated B16-F10 cells (5.0×10^5/mouse) in the right flank. Treatments were given 6 days after tumor cell inoculation by tail vein injection with normal saline, Gemcitabine HCl (GemHCl) solution, GemC18 solution, blank PEG-C18 micelles, or GemC18/PEG-C18 micelles. The dose was 0.283 mg of GemHCl or molar equivalent amount of GemC18. All groups received a second dose three days after the first dose, while the GemC18/PEG-C18 micelle group also received a third dose 3 days after the second dose. Tumor sizes were measured with calipers in two perpendicular diameters every day and reported as tumor volume (V=½ [a×b^2], a=longer diameter, b=shorter diameter)."}, "[10]": {"test_system": "PANC-1 cells", "conditions": "literature value; read-out: IC50 in PANC-1 cells reported by Duxbury et al.; cited from earlier work"}},
  "data": [
    {"smiles": "Cl.Nc1ccn([C@@H]2O[C@H](CO)[C@@H](O)C2(F)F)c(=O)n1", "note": "[Gemcitabine HCl, 2′,2′-difluorodeoxycytidine HCl, reference compound]", "values": [
      {"measurement": "IC50", "setting": "[1]", "value": "2.9 ± 1.8", "unit": "nM"},
      {"measurement": "Ratio of IC50 in CCRF-CEM/dCK−/− to that in CCRF-CEM", "setting": "[2]", "value": "82,897"},
      {"measurement": "IC50", "setting": "[2]; Homo sapiens, CCRF-CEM, MTT, 72 h incubation, dCK deficient", "value": "240000 ± 29000", "unit": "nM"},
      {"measurement": "IC50", "setting": "[3]", "value": "1.3 ± 0.3", "unit": "nM"},
      {"measurement": "IC50", "setting": "[4]", "value": "14.7 ± 2.8", "unit": "nM"},
      {"measurement": "IC50", "setting": "[5]", "value": "49.7 ± 17.7", "unit": "nM"},
      {"measurement": "Ratio of IC50 in CCRF-CEM-AraC-8C to that in CCRF-CEM", "setting": "[6]", "value": 333},
      {"measurement": "IC50", "setting": "[6]; Homo sapiens, MTT, 72 h incubation, hENT1 deficient", "value": "998.8 ± 9.4", "unit": "nM"},
      {"measurement": "Ratio of IC50 values in CEM-AraC-8C cells", "setting": "[6]; IC50 of gemcitabine HCl divided by that of the derivatives or derivatives in nanoparticles", "value": 1},
      {"measurement": "Ratio of IC50 in CCRF-CEM-AraC-8C to that in CCRF-CEM", "setting": "[6]; listed as gemcitabine HCl", "value": 344},
      {"measurement": "Time to kill 50% of PANC-1 cells", "setting": "[7]", "value": 116, "unit": "h"},
      {"measurement": "TC-1 tumor growth (tumor diameter)", "setting": "[8]", "value": "only slightly delayed the TC-1 tumor growth"},
      {"measurement": "B16-F10 tumor growth (tumor volume)", "setting": "[9]", "value": "not significant different from that in mice that received normal saline"},
      {"measurement": "IC50", "setting": "[10]", "value": 50, "unit": "nM"}
    ]}
  ]
}
